The values that follow come from patent US20120258938A1, “Enzymatic Production or Chemical Synthesis and Uses for 5,7-Dienes and UVB Conversion Products Thereof” (priority 2008, published 2012).

Series [1] has as its system anti-CD3 stimulated DBA/1 Lac J spleen cells. Put plainly: Cytokine/chemokine production by anti-CD3 stimulated spleen cells (Luminex). In kind it is cell-based, mouse. Particulars: spleen cells + anti-CD3 (4 μg/ml) + analogue 10^−7 M, 5 days, supernatant, one mouse. How it is done:
Vitamin D analogues were solubilzed in absolute alcohol (EtOH) and added at 1:100 dilution to cultures of spleen cells from normal DBA/1 Lac J mice (Table 13). […] Therefore, changes are not due to decreased cell viability.
Spleen cells from three normal 8 wk old female DBA/1 Lac J mice were cultured in 96 well tissue culture plates in quadruplicate at 2×10^6 cells/ml in RPMI 1640 medium containing 9% FCS with and without anti-CD3 (4 μg/ml) and with anti-CD3+10^−7M natural vitamin D analogues for 5 days after which time supernatants were harvested and subjected to cytokine multiplex on a Luminex instrument using Milliplex Mouse Kit (values are pg/ml). The general trend in changes in cytokine levels were similar for each of the mice but some produced different levels of each cytokine for each culture additions. Data from one mouse are given and bold numbers indicate those that changed from anti-CD3 stimulated culture with vitamin D analogues added. There was no significant stimulation of IL-1 g, IL-2, IL-4, IL-5, IL-7, IL-9, IL-12 p70, IL-13, IL-15, MIP-2, RANTES or TNFα with the anti-CD3 MOAB.

The test system of series [2] is Human dermal fibroblasts. Description: TGF-b1 induced collagen protein production by dermal fibroblasts. The format is cell-based. Particulars: collagenase sensitive protein, [3H]-proline. How it is done:
Human dermal fibroblasts grown from explant skin cultures at less than 10 subpassages were plated at 5×10^4 cells per well in 24 well Costar tissue culture plates and were grown to confluency. Complete MEM was then changed to serum free Complete MEM without non-essential amino acids. After 24 hours, culture medium was changed (450 μl/well) to the same and secosteroids listed in Table 14 were added in 10 μl absolute alcohol (ETOH) to a final concentration of 10^−9 and M, 3 replicate wells each. Vehicle control wells (n=6) contained 10 μl (ETOH). After 2 hour pre-incubation, hr TGF-b1 (R and D systems) was added to each well except ETOH wells at a final concentration of 5 ng/ml. After 48 hours of culture, plate wells were paused with 1μ Cl ^3[H]-proline. After 24 hours, culture supernatants were harvested and collagenase sensitive protein was determined as previously described (44).

The subject of series [3] is type I collagen. Description: Type I collagen ELISA, TGF-b1 stimulated skin fibroblasts. In kind it is cell-based. The settings on record: human skin fibroblasts. How it is done: (§1) Additional studies using human skin fibroblasts were performed employing a type I collagen specific ELISA Chondrex, and real time RT PCR to quantitate type I collagen protein and Col1A1 mRNA expression in culture of human fibroblast stimulated by TGF-b1 in the presence and absence of 17,20S(OH)2pD3 and/or 20(OH)D3. These studies confirmed that Type I collagen protein production that was induced by TGF-b1 and that Col1A1 mRNA that was induced by TGF-b1 were suppressed by these analogues (FIGS. 44A-44B).

Series [4] deals with Col1A1 mRNA. Put plainly: Real time RT PCR Col1A1 mRNA, TGF-b1 stimulated skin fibroblasts. The settings on record: human skin fibroblasts. The format is cell-based. How it is done: as §1
In series [5] the test system is HaCaT keratinocytes. Put plainly: [3H]-thymidine DNA synthesis in HaCaT keratinocytes. The format is cell-based, human. The settings on record: HaCaT, 24 hrs, dose dependent. How it is done:
HaCaT keratinocytes were plated in 96-well plates at the density of 10,000 cells/well in DMEM (Cellgro, Herndon Va.) containing 5% charcoal treated fetal bovine serum (Hyclone, Logan, Utah), 1% antibiotic solution (PSA, Sigma, St. Louis, […].). Next day, media were changed and vehicle (ethanol) or secosteroids added. Cells were incubated with compounds for 48 hours. [^3H]-thymidine (Amersham Biosciences, Picataway, N.Y.) was added to the final concentration of 1 μCi/mL medium for last 12 hours of incubation. Media were then discarded, cells detached with trypsin and harvested on a glass fiber filter (Packard, Meriden, Calif.). Radioactivity was measured with a beta counter (Direct Beta-Counter Matrix 9600; Packard).
To measure DNA synthesis, keratinocytes, melanoma or prostate cancer cells were plated in 96-well plates. After overnight incubation tested compounds were added to the medium to achieve final concentrations 10^−7-10^−10 [M]. 100 μl of medium per well containing vitamin D3 compound was added to the cells. After 36 hours of incubation [3H]-thymidine (specific activity 88.0 Ci/mmol; Amersham Biosciences, Picataway, N.Y., USA) was added at 1 μCi/mL medium. After 12 hours, media were discarded, cells detached with trypsin and harvested on a glass fiber filter (Packard, Meriden, Calif., USA). 3H-radioactivity was measured with a beta counter (Direct Beta-Counter Matrix 9600; Packard).
HaCaT keratinocytes were plated out in 24-well plates, 50,000 cells/well. […] After 4 h media were discarded, cells washed with cold phosphate-buffered saline and incubated in 10% trichloroacetic acid for 30 min. Cells were washed again with phosphate-buffered saline, 100 μl 1.0 M NaOH was added to each well and plates incubated for 30 min at 30° C. The supernatant was collected and the ^3H-radioactivity measured by scintillation counting using a Direct Beta-Counter Matrix 9600 (Packard). The [^3H]-thymidine incorporation into DNA was measured separately for each well and the results entered into the calculation as the mean of 6 wells for each condition in a series of six experiments (n=36). Data were analyzed with GraphPad Prizm Version 4.0 (GraphPad Software Inc., San Diego, Calif., USA) using t tests. Differences were considered significant when p<0.05.

The test system of series [6] is AbC1 hamster melanoma cells. Put plainly: Soft agar colony formation, AbC1 melanoma. The format is cell-based. The settings on record: AbC1, 3 weeks. How it is done:
Growth and survival of prostate cancer cells (PC3) and melanoma cells SKMEL 188 and AbC1 was determined by following their ability to form colonies in soft agar. Cells growing in monolayer culture were trypsinized and resuspended (1,000 cells/well) in 0.25 ml medium containing 0.4% agarose and 5% charcoal stripped serum (HyClone).
Cell suspensions were added to 0.8% agar layer in 24 well plates. Compounds were added from ethanol stocks (100 μM) to final concentrations of 0.1 nM or 10 nM, in 100 μL media. Each condition was tested in quadruplicate. An ethanol solvent control (amount of ethanol equivalent to test) as well as a media-only control was included in the assay. […] […] Colonies were then counted under the microscope and number of units was calculated as number of colonies formed divided by the number of cells seeded×100.

For series [7], the system named is SKMEL-188 human melanoma cells. Description: MTT cell viability, SKMEL-188. The format is cell-based. Particulars: SKMEL-188, 48 hrs, dose dependent. How it is done: MTT test were performed. Briefly, the cells were seeded in 96-well plate. Following 24, 48, 72 or 96 h incubation, MTT (5 mg/mL in PBS, Promega, Madison, Wis.) was added and the plates were incubated at 37° C. in 5% CO2 for 4 h. Subsequently, medium was discarded, acid isopropanol was added, plates were incubated for 30 min with continuous shaking and absorbance was measured at 570 nm with a plate reader (BIO-RAD Laboratories, Hercules, Calif.).

Series [8] deals with K562 human chronic myeloid leukemia cells. Put plainly: Erythroid differentiation of K562 cells. In kind it is cell-based. Particulars: 10^-7 M, 7 days. How it is done:
(§2) K562 human chronic myeloid leukemia (erythroleukemia) and MEL mouse erytholeukemia cells were cultured in RPMI 1640 containing 10% FBS and treated with the drugs at concentrations 0.1 μM. A 0.1% ethanol (EtOH) or 2% DMSO were used as negative or positive control, respectively to estimate the vehicle effect and the ability of the cells to differentiate. Media were exchanged every 72 h and drugs added every day. Growth of cultures was estimated by counting number of viable cells (trypan blue negative cells) as described previously.
To estimate erythroid differentiation (production of hemoglobin), first the number of benzidine positive cells was evaluated after 2 and 7 days in culture. Cells were centrifuged and washed four times with PBS and resuspended in 1 mL of fresh PBS. For hemoglobin determination, a benzidine staining solution was freshly prepared by mixing one part of 30% hydrogen peroxide, one part of base stock solution of 3% benzidine in 90% acetic acid, and 5 parts of water. The solution was diluted 1:10 with the cell suspension and aliquoted in 4 wells in 24-well plate (250 μl each). After 10 min of incubation at RT benzidine-positive cells were counted under the microscope with a minimum of 200 cells scored.
Second, to define spectrophotometrically relative content of hemoglobin, equal number of cells (7×106) were washed with cold PBS and lysed for 20 min in 100 μL of lysis buffer (0.2% Triton X-100 in […] potassium phosphate buffer, pH 7.8). The lysates were centrifuged for 15 min at 1500 r.p.m. and 100 μL of the supernatant was incubated with 2 mL of benzidine solution (5 mg/mL in glacial acetic acid) and 2 ml 30% H2O2 for 10 min increases in comparison with the level of hemoglobin in mock-induced K562 or MEL cells.

Series [9] has the same test system. Put plainly: Viable cell count, K562 cells. The format is cell-based. The settings on record: 10^-7 M, 7 days. How it is done: as §2
Series [10] has as its system mouse erytholeukemia cells (Mel). Description: Viable cell count, MEL cells. The format is cell-based. Particulars: 10^-7 M, 7 days. How it is done:
as §2

Series [11] concerns HL-60 human promyelocytic leukemia cells. Put plainly: Monocytic differentiation (NBT), HL-60. The settings on record: HL-60, 0.1 μM. The format is cell-based. How it is done:
(§3) HL-60 human promyelocytic and U937 promonocytic leukemia cells were treated with the drugs at 0.1 μM or vehicle (negative control or 12-O-tetradecanoylphorbol-13-acetate (TPA) (positive control). Media were changed every 72 h and test substances added fresh every day. Differentiation toward monocytes-like morphology and NBT-reduction has been assessed after 5 and 7 days. Cells (2×106) were washed with PBS four times and resuspended in 200 μL of NBT solution (4 mg/mL) in water. After the addition of 200 ul of TPA solution (2 ug/ml) in PBS cells were incubated at 37° C. for 60 min in 24-well plates. Cell differentiation was assessed by intracellular blue formazan deposits. The NBT positive and negative cells were scored under light microscopy examination (40×) with a minimum of 200 cells scored.
(§4) For spectrophotometric analysis the cells were washed twice with buffer containing cold bovine serum albumin solution (17 mg/mL BSA, 137 mmol/L, NaCl, 5 mmol/L, KCl, 0.8 mmol/L, MgSO4, […], HEPES, pH7.4) to remove unreacted NBT, and the insoluble formazan deposits in the resulting pellet were solubilized in 1 mL of a mixture containing 90% DMSO, 0.1% SDS and 0.01 mmol/L NaOH by vigorous vortexing. The samples were centrifuged 5 min at 1500 g to remove the cellular debris, and then the absorbance of supernatants was measured at 715 nm. Data are expressed as change in A715/106 cells.

Series [12] concerns U937 promonocytic leukemia cells. Description: Monocytic differentiation (NBT), U937. The format is cell-based, human. The settings on record: U937, 0.1 μM. How it is done: as §3, §4
The target of series [13] is bovine CYP11A1 (Bos taurus, UniProt P00189). Description: Metabolism by CYP11A1 (P450scc) in phospholipid vesicles. The format is in vitro ADME. Particulars: first 2 min of incubation. How it is done: (§5) Adrenodoxin was added last to initiate the reaction.
Chain of bovine CYP11A1 (P00189 40-520): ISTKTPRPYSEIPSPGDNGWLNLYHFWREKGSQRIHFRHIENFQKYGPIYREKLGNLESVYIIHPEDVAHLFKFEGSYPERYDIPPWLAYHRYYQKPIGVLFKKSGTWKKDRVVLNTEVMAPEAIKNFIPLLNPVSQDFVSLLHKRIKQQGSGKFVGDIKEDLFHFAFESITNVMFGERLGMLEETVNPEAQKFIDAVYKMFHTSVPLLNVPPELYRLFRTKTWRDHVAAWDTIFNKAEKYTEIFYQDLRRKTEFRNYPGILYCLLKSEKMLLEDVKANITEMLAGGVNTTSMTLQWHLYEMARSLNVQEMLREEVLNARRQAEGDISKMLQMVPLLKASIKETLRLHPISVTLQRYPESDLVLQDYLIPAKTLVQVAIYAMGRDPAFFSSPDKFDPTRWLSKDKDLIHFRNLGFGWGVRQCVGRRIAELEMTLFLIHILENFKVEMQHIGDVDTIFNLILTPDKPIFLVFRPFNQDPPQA
(§6) Products and remaining substrate were extracted with dichloromethane, and measured by reverse phase HPLC as described before (12, 13b).

For series [14], the target named is human CYP27B1 (Homo sapiens, UniProt O15528). Description: Metabolism by CYP27B1 in phospholipid vesicles. In kind it is in vitro ADME. Particulars: up to 10 min. How it is done: as §5, §6
Chain of human CYP27B1 (O15528 whole entry): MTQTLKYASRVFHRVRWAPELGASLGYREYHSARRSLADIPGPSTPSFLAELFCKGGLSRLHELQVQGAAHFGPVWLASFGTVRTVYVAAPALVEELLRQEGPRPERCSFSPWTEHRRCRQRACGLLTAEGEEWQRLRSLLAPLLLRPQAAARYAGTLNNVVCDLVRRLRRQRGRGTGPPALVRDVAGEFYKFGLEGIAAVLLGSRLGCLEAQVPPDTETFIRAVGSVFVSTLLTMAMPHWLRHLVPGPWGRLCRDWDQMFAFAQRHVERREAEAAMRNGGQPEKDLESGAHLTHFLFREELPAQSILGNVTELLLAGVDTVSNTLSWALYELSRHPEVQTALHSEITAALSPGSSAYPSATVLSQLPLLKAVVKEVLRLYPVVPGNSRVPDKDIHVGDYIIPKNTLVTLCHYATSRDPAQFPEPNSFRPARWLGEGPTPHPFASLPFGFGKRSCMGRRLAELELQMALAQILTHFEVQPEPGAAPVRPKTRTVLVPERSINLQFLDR

Turning to `C=C1CC[C@H](O)C/C1=C/C=C1\CCC[C@@]2(C)[C@H]1CC[C@]2(O)[C@H](C)O` [17,20S(OH)2pD3, (5Z,7E)-(20S)-9,10-secopregna-5,7,10(19)-triene-3β,17α,20-triol], in series [1], the G-CSF stood at 12 pg/mL, the GM-CSF came to 41 pg/mL, the IFNγ came out at 0 pg/mL and the IL-1α was determined as 4 pg/mL. Moreover, in series [1], the IL-6 was 13 pg/mL, the IL-10 was 16 pg/mL, the IL-17 is 111 pg/mL and the IP-10 came to 6 pg/mL. For the same compound, in series [1], the KC came to 5 pg/mL and the MCP-1 worked out at 102 pg/mL. For the same compound, the “TGF-b1 induced collagen protein production” value in series [2] is “inhibited TGF-b1 induced collagen protein production”. The “TGF-b1 induced Type I collagen protein production (ELISA)” value in series [3] is on record as “suppressed”. In series [4], the “TGF-b1 induced Col1A1 mRNA” value was “suppressed”.

Take `C=C1CC[C@H](O)C/C1=C/C=C1\CCC[C@]2(C)[C@@H](C(C)O)CC[C@@H]12` (stereo partly drawn) [20OH pD3, (5Z,7E)-9,10-secopregna-5,7,10(19)-triene-3β,20-diol]: in [5], the “proliferation (DNA synthesis)” value is given as “inhibit proliferation”. The “growth on soft agar (colonies greater than 0.2 and 0.5 mm)” value in series [6] is on record as “inhibit the growth on soft agar”. For the same compound, in series [7], the “proliferation (MTT test)” value is “inhibit proliferation”. Further, in [8], the “differentiation of K562 cells” value is reported as “induce differentiation”. For the same compound, the “proliferation of K562 cells” value in series [9] is on record as “inhibit proliferation”. The “proliferation of mouse erytholeukemia cells (Mel)” value in [10] is “inhibit proliferation”.

Turning to `CC(O)[C@H]1CC[C@H]2C3=CC=C4C[C@@H](O)CC[C@@]4(C)[C@@H]3CC[C@]12C` (stereo partly drawn) [20OH pL3, 3β,20-dihydroxy-9β,10α-pregna-5,7-diene], the “proliferation (DNA synthesis)” value in series [5] is given as “inhibit proliferation”. Also, the “growth on soft agar (colonies greater than 0.2 and 0.5 mm)” value in [6] is “inhibit the growth on soft agar”. In addition, the “proliferation (MTT test)” value in series [7] is on record as “inhibit proliferation”. The “differentiation of K562 cells” value in [8] is recorded as “induce differentiation”. For the same compound, the “proliferation of K562 cells” value in series [9] was “inhibit proliferation”. Further, in [10], the “proliferation of mouse erytholeukemia cells (Mel)” value is “inhibit proliferation”. Further, the “monocytic differentiation (NBT staining)” value in series [11] and in series [12] was “induce monocytic differention” throughout.

`C=C1CC[C@H](O)C/C1=C/C=C1\CCC[C@@]2(C)[C@H]1CC[C@@H]2[C@@](C)(O)CCCC(C)C` [20S(OH)D3, (5Z,7E)-9,10-secocholesta-5,7,10(19)-triene-3β,20S-diol] had a substrate consumed in [13] of 13%. Besides, in series [14], the “metabolism by CYP27B1” value is “metabolized to a single product at comparable initial rates”.
